Measurements: patent US5593985A, “Cephalosporin compounds” (priority 1994, dated 1997)
In brackets after ≈: the same amount, converted by molar mass.

What was measured:
Streptococcus faecium 8b = test: MIC, standard strain 3; assay type: cell-based; details: Enterococcus faecium; S. faecium 8b; two-fold dilution, Muller Hinton agar, 10^7 CFU/ml, 37° C., 18 hours; read-out: Minimal Inhibitory Concentration(MIC)
Procedure: (§1) In order to illustrate antibiotic effectiveness of the compounds of the present invention, the minimal inhibitory concentrations (MIC's) of the representative compounds were determined against standard strains and compared with ceftazidime and cefpirome, which were used as control compounds.
(§2) The MIC values were taken by employing a two-fold dilution method: that is, two-fold serial dilutions of each of the test compounds were made from initial concentration of […]; each 1.5 ml of them was dispersed in 13.5 ml of Muller Hinton agar medium to adjust to […]; the standard test strain which had the concentration of 10^7 CFU/ml was inoculated by medium;and these were incubated at 37° C. for 18 hours.
(§3) The test used twenty kinds of standard test strains which induced urinary tract infections, respiratory organ infections, skin soft tissue infections, plasma infections, gastrointestinal infections, central nervous system infections, most of which produce β-lactamase. The standard test strains used are as follows:
3. Streptococcus faecium 8b

Escherichia coli = test: MIC, clinically separated strains; assay type: cell-based; details: 18 h
Procedure: as §2

Serratia spp = test: MIC, clinically separated strains; assay type: cell-based; details: 18 h
Procedure: as §2

Pseudomonas aeruginosa = test: MIC, clinically separated strains; assay type: cell-based; details: 18 h
Procedure: as §2

MRSA(KAIST) = test: MIC, clinically separated strains; assay type: cell-based; details: Staphylococcus aureus, 18 h
Procedure: as §2

Enterobactercloacas = test: MIC, clinically separated strains; assay type: cell-based; details: Enterobacter cloacae, 18 h, 20 clinical strains
Procedure: as §2

Klebsiella oxytoca = test: MIC, clinically separated strains; assay type: cell-based; details: 18 h
Procedure: as §2

Methicillin Resistant = test: MIC, clinically separated strains; assay type: cell-based; details: 18 h, 19 clinical strains
Procedure: as §2

Providencia rettgeri = test: MIC, clinically separated strains; assay type: cell-based; details: 18 h, read-out: range of MIC, 6 clinical strains
Procedure: as §2

Proteus mirabilis = test: MIC, clinically separated strains; assay type: cell-based; details: 18 h
Procedure: as §2

Pseudomonas I = test: MIC, clinically separated strains; assay type: cell-based; details: 18 h
Procedure: as §2

Morganella morganii = test: MIC, clinically separated strains; assay type: cell-based; details: 18 h
Procedure: as §2

Pseudomonas II = test: MIC, clinically separated strains; assay type: cell-based; details: 18 h
Procedure: as §2

D Streptococcus I = test: MIC, clinically separated strains; assay type: cell-based; details: 18 h
Procedure: as §2

Proteus vulgaris = test: MIC, clinically separated strains; assay type: cell-based; details: 18 h
Procedure: as §2

ATCC = test: MIC, clinically separated strains; assay type: cell-based; details: 18 h; 20 strains
Procedure: as §2

Streptococcus II = test: MIC, clinically separated strains; assay type: cell-based; details: 18 h
Procedure: as §2

Enterococcus I = test: MIC, clinically separated strains; assay type: cell-based; details: 18 h
Procedure: as §2

Enterococcus II = test: MIC, clinically separated strains; assay type: cell-based; details: 18 h
Procedure: as §2

Escherichia coli DC 0 = test: MIC, standard strain 8; assay type: cell-based; details: DC0, E. coli DC 0, two-fold dilution, Muller Hinton agar, 10^7 CFU/ml, 37° C., 18 hours, read-out: Minimal Inhibitory Concentration(MIC)
Procedure: as §1, §2
The test used twenty kinds of standard test strains which induced urinary tract infections, respiratory organ infections, skin soft tissue infections, plasma infections, gastrointestinal infections, central nervous system infections, most of which produce β-lactamase.

[1] = system: Streptococcus pyogenes A 308; test: MIC, standard strain 1; assay type: cell-based; details: A308, S. pyogenes A 308, two-fold dilution, Muller Hinton agar, 10^7 CFU/ml, 37° C., 18 hours, read-out: Minimal Inhibitory Concentration(MIC)
Procedure: as §1, §2, §3
1. Streptococcus pyogenes A 308

[2] = system: Staphylococcus aureus SG 511; test: MIC, standard strain 4; assay type: cell-based; details: SG511, S. aureus SG 511, two-fold dilution, Muller Hinton agar, 10^7 CFU/ml, 37° C., 18 hours, read-out: Minimal Inhibitory Concentration(MIC)
Procedure: as §1, §2, §3
4. Staphylococcus aureus SG 511

D StreptococcusII = test: MIC, clinically separated strains; assay type: cell-based, D Streptococcus; details: Streptococcus, 18 h
Procedure: as §2

[3] = system: Pseudomonas aeruginosa 9.027; test: MIC, standard strain 12; assay type: cell-based; details: Pseudomonas aeruginosa; P. aeruginosa 9.027; two-fold dilution, Muller Hinton agar, 10^7 CFU/ml, 37° C., 18 hours; read-out: Minimal Inhibitory Concentration(MIC)
Procedure: as §1, §2, §3
12. Pseudomonas aeruginosa 9.027

[4] = system: Pseudomonas aeruginosa 1771; test: MIC, standard strain 14; assay type: cell-based; details: Pseudomonas aeruginosa; P. aeruginosa 1771; two-fold dilution, Muller Hinton agar, 10^7 CFU/ml, 37° C., 18 hours; read-out: Minimal Inhibitory Concentration(MIC)
Procedure: as §1, §2, §3
14. Pseudomonas aeruginosa 1771

[5] = system: Pseudomonas aeruginosa 1771M; test: MIC, standard strain 15; assay type: cell-based; details: 18 h, read-out: Minimal Inhibitory Concentration(MIC)
Procedure: as §1, §2, §3
15. Pseudomonas aeruginosa 1771M

[6] = read-out: range of MIC, 20 clinical strains
[7] = read-out: range of MIC, 5 clinical strains

`CO/N=C(\C(=O)N[C@@H]1C(=O)N2C(C(=O)[O-])=C(C[n+]3cccc4c3CCC4)CS[C@H]12)c1csc(N)n1` [cefpirome, reference compound] was tested, and the MIC (Streptococcus faecium 8b) was 25000 µg/mL (≈ 48600 µM), the MIC50 (Escherichia coli; 20 clinical strains) was 0.025 µg/mL (≈ 0.0486 µM) and the MIC90 (Escherichia coli; 20 clinical strains) was 0.049 µg/mL (≈ 0.0952 µM). For the same molecule, the MIC (Escherichia coli; [6]) was 0.025 to 0.391 µg/mL (≈ 0.0486 to 0.76 µM), the MIC50 (Serratia spp; 20 clinical strains) was 0.049 µg/mL (≈ 0.0952 µM) and the MIC90 (Serratia spp; 20 clinical strains) was 0.098 µg/mL (≈ 0.19 µM). For the same molecule, the MIC (Serratia spp; [6]) was 0.025 to 0.049 µg/mL (≈ 0.0486 to 0.0952 µM), the MIC50 (Pseudomonas aeruginosa; 20 clinical strains) was 3.12 µg/mL (≈ 6.07 µM) and the MIC90 (Pseudomonas aeruginosa; 20 clinical strains) was 12.5 µg/mL (≈ 24.3 µM). The MIC (Pseudomonas aeruginosa; [6]) was 0.781 to 12.5 µg/mL (≈ 1.52 to 24.3 µM), the MIC50 (MRSA(KAIST); 15 clinical strains) was 12.5 µg/mL (≈ 24.3 µM) and the MIC90 (MRSA(KAIST); 15 clinical strains) was 100 µg/mL (≈ 194 µM). The MIC (MRSA(KAIST); read-out: range of MIC, 15 clinical strains) was 0.781 to 100 µg/mL (≈ 1.52 to 194 µM), the MIC (Enterobactercloacas; read-out: range of MIC) was 0.013 to 1.56 µg/mL (≈ 0.0253 to 3.04 µM) and the MIC50 (Enterobactercloacas) was 0.025 µg/mL (≈ 0.0486 µM). The MIC90 (Enterobactercloacas) was 0.098 µg/mL (≈ 0.19 µM), the MIC50 (Klebsiella oxytoca; 20 clinical strains) was 0.025 µg/mL (≈ 0.0486 µM) and the MIC90 (Klebsiella oxytoca; 20 clinical strains) was 0.781 µg/mL (≈ 1.52 µM). It also gave an MIC (Klebsiella oxytoca; [6]) of 0.007 to 0.391 µg/mL (≈ 0.0136 to 0.76 µM), an MIC (Methicillin Resistant; read-out: range of MIC) of 0.781 to 100 µg/mL (≈ 1.52 to 194 µM) and an MIC50 (Methicillin Resistant) of 12.5 µg/mL (≈ 24.3 µM). It also gave an MIC90 (Methicillin Resistant) of 100 µg/mL (≈ 194 µM), an MIC (Providencia rettgeri) of 0.004 to 0.098 µg/mL (≈ 0.00777 to 0.19 µM) and an MIC50 (Proteus mirabilis; 4 clinical strains) of 0.013 µg/mL (≈ 0.0253 µM). The MIC90 (Proteus mirabilis; 4 clinical strains) was 0.049 µg/mL (≈ 0.0952 µM), the MIC (Proteus mirabilis; read-out: range of MIC, 4 clinical strains) was 0.007 to 0.049 µg/mL (≈ 0.0136 to 0.0952 µM) and the MIC50 (Pseudomonas I) was 1.56 µg/mL (≈ 3.04 µM). The MIC90 (Pseudomonas I) was 6.25 µg/mL (≈ 12.1 µM), the MIC (Pseudomonas I; read-out: range of MIC) was 0.781 to 12.5 µg/mL (≈ 1.52 to 24.3 µM) and the MIC50 (Morganella morganii; 5 clinical strains) was 0.013 µg/mL (≈ 0.0253 µM). The MIC90 (Morganella morganii; 5 clinical strains) was 0.025 µg/mL (≈ 0.0486 µM), the MIC (Morganella morganii; [7]) was 0.013 to 0.025 µg/mL (≈ 0.0253 to 0.0486 µM) and the MIC50 (Pseudomonas II) was 1.56 µg/mL (≈ 3.04 µM). It also gave an MIC90 (Pseudomonas II) of 6.25 µg/mL (≈ 12.1 µM), an MIC (Pseudomonas II; read-out: range of MIC) of 0.781 to 12.5 µg/mL (≈ 1.52 to 24.3 µM) and an MIC50 (D Streptococcus I; 20 clinical strains) of 25 µg/mL (≈ 48.6 µM). For the same molecule, the MIC90 (D Streptococcus I; 20 clinical strains) was 50 µg/mL (≈ 97.2 µM), the MIC (D Streptococcus I; [6]) was 12.5 to 100 µg/mL (≈ 24.3 to 194 µM) and the MIC50 (Proteus vulgaris; 5 clinical strains) was 0.049 µg/mL (≈ 0.0952 µM). The MIC90 (Proteus vulgaris; 5 clinical strains) was 0.098 µg/mL (≈ 0.19 µM), the MIC (Proteus vulgaris; [7]) was 0.025 to 0.098 µg/mL (≈ 0.0486 to 0.19 µM) and the MIC50 (ATCC) was 0.098 µg/mL (≈ 0.19 µM). It also gave an MIC90 (ATCC) of 25 µg/mL (≈ 48.6 µM), an MIC50 (Streptococcus II; 17 clinical strains) of 0.004 µg/mL (≈ 0.00777 µM) and an MIC90 (Streptococcus II; 17 clinical strains) of 0.007 µg/mL (≈ 0.0136 µM). For the same molecule, the MIC (Streptococcus II; read-out: range of MIC, 17 clinical strains) was 0.002 to 0.007 µg/mL (≈ 0.00389 to 0.0136 µM), the MIC50 (Enterococcus I; 20 clinical strains) was 0.025 µg/mL (≈ 0.0486 µM) and the MIC90 (Enterococcus I; 20 clinical strains) was 0.098 µg/mL (≈ 0.19 µM). For the same molecule, the MIC (Enterococcus I; read-out: range of MIC) was 0.013 to 0.195 µg/mL (≈ 0.0253 to 0.379 µM), the MIC50 (Enterococcus II; 20 clinical strains) was 0.049 µg/mL (≈ 0.0952 µM) and the MIC90 (Enterococcus II; 20 clinical strains) was 1.56 µg/mL (≈ 3.04 µM). For the same molecule, the MIC (Enterococcus II; [6]) was 0.007 to 3.12 µg/mL (≈ 0.0136 to 6.07 µM), the MIC (Escherichia coli DC 0) was 49 µg/mL (≈ 95.2 µM) and the MIC [1] was 4 µg/mL (≈ 7.77 µM). It also gave an MIC [2] of 391 µg/mL (≈ 760 µM), an MIC (D StreptococcusII; read-out: range of MIC) of 6.25 to 100 µg/mL (≈ 12.1 to 194 µM) and an MIC50 (D StreptococcusII; 19 clinical strains) of 50 µg/mL (≈ 97.2 µM). For the same molecule, the MIC90 (D StreptococcusII; 19 clinical strains) was 100 µg/mL (≈ 194 µM), the MIC [3] was 3120 µg/mL (≈ 6070 µM) and the MIC [4] was 391 µg/mL (≈ 760 µM). The MIC [5] was 195 µg/mL (≈ 379 µM).
